According to patent US12246036B2, “Composition for use in the prevention and in the treatment of iron deficiency” (PHARMANUTRA S.P.A., priority 2017, dated 2025):

Assays:
[1] = Dilution test of iron compositions in sterile PBS and cell culture medium (dissolution properties); assay type: physicochemical; conditions: for appearance after initial ten-fold dilution: 3 mg/ml of iron, PBS and medium; for appearance after further ten-fold dilution: 300 micrograms/ml of iron
Protocol: (§1) The iron content of the compounds (with the exception of the vitamin D and the sucrosomial matrix) was 30 mg/ml. A 1:100 dilution was performed for all of the compounds in sterile PBS in order to obtain an iron concentration of 300 micrograms/ml. […] The final iron concentration used in the experiments has been described elsewhere (Barisani et al. “Iron overload and gene expression in HepG2 cells: analysis by differential display” FEBS Letters 2000, 469, 208-212). The compounds (initial dilution of […]) were diluted in an incomplete FBS-free medium (RPMI 1640 for the U937 cells, EMEM for the HepG2 cells) with a dilution factor of 1:6 for a final iron concentration of 50 micrograms/ml. A test was conducted to assess the effect of the compounds on the cell cultures: induced FlepG2 and U937 were seeded a with a cell density of 650,000 cells/ml in 6 wells (final volume 1.5 ml/well). After 24 hours the medium was replaced with a new FBS-free (incomplete) one containing 50 µg/ml of iron and after 24 hours the cells were macroscopically checked (visual inspection using a microscope).
Before the cells were treated with the selected compounds, they were tested to assess their dissolution properties. The compounds were diluted in sterile PBS and in the standard cell culture medium (EMEM).

U937 cells = conditions: 50 micrograms/ml of iron, 24 hours
Protocol: as §1

hepcidin = assay: Hepcidin produced by LPS-stimulated HepG2 cells in supernatant (ELISA); assay type: cell-based, human; conditions: LPS-stimulated HepG2, 18 hours of treatment; combination compared to vitamin D alone or sucrosomial iron alone (FIG. 2)
Protocol: The HepG2 cells were seeded in 6 wells at a concentration of 650,000 cells/ml (1.5 ml/well). The plates were incubated for 24 hours at 37° C. and 5% CO2 first. Afterwards, the 24-hour medium was replaced with an incomplete EMEM without FEM, containing 40 ng/ml of LPS. A control well was prepared with an LPS-FBS-free incomplete medium. After 20 hours of incubation at 37° C. and 5% CO2, the medium was replaced with the iron treatment solutions (medium containing 50 µg/ml of iron). In the control well, the medium was replaced by an incomplete FBS-free EMEM medium. Another control well without iron was prepared, replacing a container containing LPS with a fresh incomplete FBS-free medium. After 6, 18 and 24 ore, the hours, the supernatants were collected from the wells, centrifugated for 10 minutes at 1000 g, transferred into a new tube and stored a −20° C. for the analysis of hepcidin and CRP. The cells of each well collected were detached using trypsin and counted using Trypan blue with a Bürker counting chamber.

| Molecule | appearance after initial ten-fold dilution [1] | appearance after further ten-fold dilution [1] | appearance of the compounds before dilution in PBS / EMEM ([1]; compounds as supplied (30 mg/ml iron)) | effect on the cytoplasmic volume of the cells (U937 cells) | hepcidin level/expression in supernatants of HepG2 cells (hepcidin) |
| --- | --- | --- | --- | --- | --- |
| O=P([O-])([O-])OP(=O)([O-])[O-].O=P([O-])([O-])OP(=O)([O-])[O-].O=P([O-])([O-])OP(=O)([O-])[O-].[Fe+3].[Fe+3].[Fe+3].[Fe+3] [iron pyrophosphate] | changed the colour (pH) of the medium from red to yellow | no evident colour change | – | – | – |
| O=S(=O)([O-])[O-].[Fe+2] [iron sulphate] | changed the colour (pH) of the medium from red to yellow | moderate colour change | separated in two phases | loss of volume | – |
| vitamin D | no problems | – | – | – | higher |
